In article PMC7156724, “Potent BRD4 inhibitor suppresses cancer cell-macrophage interaction” (Nature Communications, 2020):
Values joined by “and” are separate entries in the source; they are usually repeats but may differ in a detail not shown here. Equal values may be shown once.

Tests used:
[1] = MTS assay of non-cancerous cells; type: cell-based, human; conditions: human
Method: Supplementary Figure 4. […] (a-c) MTS
assays of HaCAT cells (immortalized human keratinocytes) treated with the indicated concentration of
NHWD-870 for 24h (a), 48h (b) or 72h (c). Data are presented as mean ± SEM of 5 independent experiments.
p values were calculated from two-tailed, unpaired t tests. Source data are provided as a Source Data file.
37℃, 5% CO2. […]

CSF1 mRNA = test: RT-qPCR of CSF1 mRNA in human ovarian cancer and melanoma cells; type: cell-based; conditions: 50 nM, 48 h
TAMs = test: 3D Matrigel culture of TAMs, direct treatment; type: cell-based, mouse
Method: CD45^+CD11b^+F4/80^+ TAMs were isolated from peritoneal metastasis of A2780 tumor-bearing mice and cultured in RPMI-1640 supplemented with 10% FBS, 1% penicillin/streptomycin, and 0–50 ng/ml CSF1 (R&D Systems) as indicated according to standard protocols. In the cancer cell-macrophage co-culture experiments, CSF1 was not added. In the transwell (Corning, pore size, 0.4 μm) co-culture experiments, tumor cells were placed into the upper chamber, and TAMs were seeded into the lower chamber.
Single clone spheroids were generated by culturing A2780, ES-2, H526 and MDA-MB231 cells for 16 h as a hanging drop over a humidified plate in a CO2 incubator in their corresponding complete media. […] The relative spheroid sizes were measured with ImageJ version 1.52s using the 15 representative spheroids. […]
with anti-CD45, CD11b and CD206 followed by FACS analysis. Shown are representative FACS plots (c) and quantification of the percentage of CD11b+CD206+ cells (d). Data are presented as mean ± SEM from 5 different mice. p values were calculated using two-tailed, unpaired t tests. **, p<0.01; ***, p<0.001. […] Quantification of spheroid volumes (f). Data are presented as mean ± SEM from 15 independent experiments. p values were calculated using two-tailed, unpaired t tests. **, p<0.01. […]

CSF1 protein = test: ELISA of CSF1 protein in supernatant of human tumor cells (A2780, SKOV3, A375); type: cell-based; conditions: 10^6 A375 cells, 25 nM, 24 h
Method: A2780 tumor cells were pretreated with 100 nM NHWD-870 and then directly co-cultured with TAMs (A2780:TAMs ratio as 4:1) at the density of 1 × 10^5 total cells in a 12-well. Shown are immunofluorescent staining of Ki67 and CD68 (a) and quantification of Ki67+ and CD68− or CD68+ cells (b). Scale bar is 50 μm. […] A2780 cells (pre-treated with or without 100 nM NHWD-870 for 48 h) were seeded into the top chamber (transwell size: 0.4 μm) and TAMs (Mac, 40,000 cells per 24-well) in medium containing 2% matrigel were seeded into the bottom chamber pre-coated with Matrigel. No NHWD-870 was added to the co-culture. The upper chamber without A2780 cells was used as a control. Shown are schematics of transwell co-culture experiment (c), representative pictures of TAM spheroid (d: black/white), and quantification of spheroid volumes (e). Scale bar is 50 μm. […] Data are presented as mean ± SEM from three independent experiments. g CSF1 protein levels in supernatant of 10^6 ID8, B16, A2780, SKOV3, and A375 cells treated with DMSO or 25 nM NHWD-870 for 24 h, as measured by ELISA. […] Scale bar is 20 μm. i Quantification of CSF1 staining in DMSO or 100 nM NHWD-870 treated A2780 cells. […] Shown are representative immunofluorescent staining of CSF1 (green) and CD68 (red) (j) and quantification of CSF1 staining (k). […]

Structure (SMILES): Cc1nnn(C)c1-c1cnc2c3c4cnn(C)c4ccc3n([C@H](c3ccccc3)C3CCOCC3)c2c1 [NHWD-870]
- viability at 24 h, 0.008 µM ([1]; HaCAT cells (immortalized human keratinocytes), 24h, 8 nM, read-out: Cell viability (Sup Fig.4a)): 92.2%
- viability at 24 h, 0.016 µM ([1]; HaCAT cells (immortalized human keratinocytes), 24h, 16 nM, read-out: Cell viability (Sup Fig.4a)): 110%
- viability at 24 h, 0.064 µM ([1]; HaCAT cells (immortalized human keratinocytes), 24h, 64 nM, read-out: Cell viability (Sup Fig.4a)): 103%
- viability at 24 h, 0.25 µM ([1]; HaCAT cells (immortalized human keratinocytes), 24h, 250 nM, read-out: Cell viability (Sup Fig.4a)): 104%
- viability at 24 h, 0.5 µM ([1]; HaCAT cells (immortalized human keratinocytes), 24h, 500 nM, read-out: Cell viability (Sup Fig.4a)): 100%
- viability at 48 h, 0.032 µM ([1]; HaCAT cells (immortalized human keratinocytes), 48h, 32 nM, read-out: Cell viability (Sup Fig.4b)): 91%
- viability at 48 h, 0.064 µM ([1]; HaCAT cells (immortalized human keratinocytes), 48h, 64 nM, read-out: Cell viability (Sup Fig.4b)): 83.9%
- viability at 48 h, 0.25 µM ([1]; HaCAT cells (immortalized human keratinocytes), 48h, 250 nM, read-out: Cell viability (Sup Fig.4b)): 88.5%
- viability at 48 h, 0.5 µM ([1]; HaCAT cells (immortalized human keratinocytes), 48h, 500 nM, read-out: Cell viability (Sup Fig.4b)): 86.7%
- viability at 48 h, 1 µM ([1]; HaCAT cells (immortalized human keratinocytes), 48h, 1000 nM, read-out: Cell viability (Sup Fig.4b)): 87.1%
- viability at 72 h, 0.008 µM ([1]; HaCAT cells (immortalized human keratinocytes), 72h, 8 nM, read-out: Cell viability (Sup Fig.4b, 72h)): 99.5%
- viability at 72 h, 0.016 µM ([1]; HaCAT cells (immortalized human keratinocytes), 72h, 16 nM, read-out: Cell viability (Sup Fig.4b, 72h)): 90.2%
- viability at 72 h, 0.032 µM ([1]; HaCAT cells (immortalized human keratinocytes), 72h, 32 nM, read-out: Cell viability (Sup Fig.4b, 72h)): 86.9%
- viability at 72 h, 0.064 µM ([1]; HaCAT cells (immortalized human keratinocytes), 72h, 64 nM, read-out: Cell viability (Sup Fig.4b, 72h)): 89.6%
- viability at 72 h, 0.25 µM ([1]; HaCAT cells (immortalized human keratinocytes), 72h, 250 nM, read-out: Cell viability (Sup Fig.4b, 72h)): 78.9%
- viability at 72 h, 0.5 µM ([1]; HaCAT cells (immortalized human keratinocytes), 72h, 500 nM, read-out: Cell viability (Sup Fig.4b, 72h)): 87.1%
- viability at 72 h, 1 µM ([1]; HaCAT cells (immortalized human keratinocytes), 72h, 1000 nM, read-out: Cell viability (Sup Fig.4b, 72h)): 78.4%
- viability at 24 h, 1 µM ([1]; HaCAT cells (immortalized keratinocytes), 24h, 1000 nM, read-out: Cell viability (Sup Fig.4a)): 108%
- viability at 48 h, 0.008 µM ([1]; HaCAT cells (immortalized keratinocytes), 48h, 8 nM, read-out: Cell viability (Sup Fig.4b)): 86.6%
- viability at 48 h, 0.016 µM ([1]; HaCAT cells (immortalized keratinocytes), 48h, 16 nM, read-out: Cell viability (Sup Fig.4b)): 89.9%
- relative CSF1 mRNA level (CSF1 mRNA; 2780 (A2780)): 0.0041 and 0.006 and 0.005
- relative CSF1 mRNA level (CSF1 mRNA; YUAME): 0.0004 and 0.0005 and 0.0003
- fold inhibition of colony size of macrophages (TAMs): < 2 fold
- decrease of the ability of TAMs to form colonies in a 3D culture system (TAMs; 100 nM): < 50%
- CSF1 protein levels in supernatant (ELISA) (CSF1 protein): 26 and 36 and 31
